Measured values from ChEMBL document CHEMBL3769303, “Discovery of membrane active benzimidazole quinolones-based topoisomerase inhibitors as potential DNA-binding antimicrobial agents” (Eur J Med Chem, 2016).
Converted amounts (≈) assume the structure as drawn.

How the values were obtained:
Format in all cases: functional
[1] = tested on: Aspergillus flavus; assay: Antifungal activity against Aspergillus flavus ATCC 204304 after 24 hrs by micro broth dilution method; conditions: ATCC 204304, 24 h
[2] = tested on: Micrococcus luteus; assay: Antibacterial activity against Micrococcus luteus ATCC 4698 by micro broth dilution method; conditions: NCTC 2665
[3] = tested on: Staphylococcus aureus; assay: Antibacterial activity against methicillin-resistant Staphylococcus aureus N315 by micro broth dilution method
[4] = tested on: Bacillus spizizenii; assay: Antibacterial activity against Bacillus subtilis ATCC 6633 by micro broth dilution method
[5] = tested on: Staphylococcus aureus; assay: Antibacterial activity against Staphylococcus aureus ATCC 25923 by micro broth dilution method
[6] = tested on: Shigella dysenteriae; assay: Antibacterial activity against Shigella dysenteriae by micro broth dilution method
[7] = tested on: Escherichia coli; assay: Antibacterial activity against Escherichia coli JM109 by micro broth dilution method
[8] = tested on: Pseudomonas aeruginosa; assay: Antibacterial activity against Pseudomonas aeruginosa ATCC 27853 by micro broth dilution method
[9] = tested on: Candida albicans; assay: Antifungal activity against Candida albicans ATCC 10231 after 24 hrs by micro broth dilution method; conditions: ATCC 10231, 24 h
[10] = tested on: Escherichia coli; assay: Antibacterial activity against Escherichia coli DH52 by micro broth dilution method
[11] = Antifungal activity against Candida mycoderma ATCC 9888 after 24 hrs by micro broth dilution method; conditions: Candida vini
[12] = Antibacterial activity against Bacillus proteus ATCC 13315 by micro broth dilution method
[13] = tested on: Saccharomyces cerevisiae; assay: Antifungal activity against Saccharomyces cerevisiae ATCC 9763 after 24 hrs by micro broth dilution method; conditions: ATCC 9763, 24 h
[14] = tested on: Salmonella enterica; assay: Antibacterial activity against Salmonella enterica ATCC 14028 by micro broth dilution method
[15] = tested on: Cyberlindnera jadinii; assay: Antifungal activity against Candida utilis ATCC 9950 after 24 hrs by micro broth dilution method; conditions: Williopsis jadinii, ATCC 9950, 24 h

Compound	MIC80 [1] [µg/mL]	MIC [2] [µg/mL]	MIC [3] [µg/mL]	MIC [4] [µg/mL]	MIC [5] [µg/mL]	MIC [6] [µg/mL]	MIC [7] [µg/mL]	MIC [8] [µg/mL]	MIC80 [9] [µg/mL]	MIC [10] [µg/mL]	MIC80 [11] [µg/mL]	MIC [12] [µg/mL]	MIC80 [13] [µg/mL]	MIC [14] [µg/mL]	MIC80 [15] [µg/mL]
CCn1cc(C(=O)O)c(=O)c2cc(F)c(N3CCN(Cc4nc5ccc([N+](=O)[O-])cc5[nH]4)CC3)cc21	2 (≈ 4.04 µM)	1 (≈ 2.02 µM)	8 (≈ 16.2 µM)	8 (≈ 16.2 µM)	16 (≈ 32.4 µM)	4 (≈ 8.09 µM)	32 (≈ 64.7 µM)	2 (≈ 4.04 µM)	4 (≈ 8.09 µM)	8 (≈ 16.2 µM)	8 (≈ 16.2 µM)	2 (≈ 4.04 µM)	16 (≈ 32.4 µM)	4 (≈ 8.09 µM)	8 (≈ 16.2 µM)
CCCCCCCCCCn1c(CN2CCN(c3cc4c(cc3F)c(=O)c(C(=O)O)cn4CC)CC2)nc2ccccc21	4 (≈ 6.78 µM)	16 (≈ 27.1 µM)	8 (≈ 13.6 µM)	4 (≈ 6.78 µM)	32 (≈ 54.3 µM)	8 (≈ 13.6 µM)	32 (≈ 54.3 µM)	4 (≈ 6.78 µM)	16 (≈ 27.1 µM)	0.5 (≈ 0.848 µM)	8 (≈ 13.6 µM)	8 (≈ 13.6 µM)	4 (≈ 6.78 µM)	8 (≈ 13.6 µM)	4 (≈ 6.78 µM)
CCn1cc(C(=O)O)c(=O)c2cc(F)c(N3CCN(Cc4nc5ccc(Br)cc5[nH]4)CC3)cc21	4 (≈ 7.57 µM)	2 (≈ 3.79 µM)	32 (≈ 60.6 µM)	8 (≈ 15.1 µM)	64 (≈ 121 µM)	16 (≈ 30.3 µM)	16 (≈ 30.3 µM)	2 (≈ 3.79 µM)	64 (≈ 121 µM)	16 (≈ 30.3 µM)	32 (≈ 60.6 µM)	4 (≈ 7.57 µM)	16 (≈ 30.3 µM)	8 (≈ 15.1 µM)	16 (≈ 30.3 µM)
CCCCCn1c(CN2CCN(c3cc4c(cc3F)c(=O)c(C(=O)O)cn4CC)CC2)nc2ccccc21	64 (≈ 123 µM)	16 (≈ 30.8 µM)	64 (≈ 123 µM)	32 (≈ 61.6 µM)	512 (≈ 985 µM)	128 (≈ 246 µM)	128 (≈ 246 µM)	64 (≈ 123 µM)	4 (≈ 7.7 µM)	8 (≈ 15.4 µM)	8 (≈ 15.4 µM)	8 (≈ 15.4 µM)	64 (≈ 123 µM)	256 (≈ 493 µM)	32 (≈ 61.6 µM)
CCCCCn1c(CN2CCN(c3cc4c(cc3F)c(=O)c(C(=O)O)cn4C3CC3)CC2)nc2ccccc21	256 (≈ 482 µM)	4 (≈ 7.52 µM)	64 (≈ 120 µM)	4 (≈ 7.52 µM)	128 (≈ 241 µM)	8 (≈ 15 µM)	128 (≈ 241 µM)	2 (≈ 3.76 µM)	8 (≈ 15 µM)	1 (≈ 1.88 µM)	2 (≈ 3.76 µM)	2 (≈ 3.76 µM)	256 (≈ 482 µM)	4 (≈ 7.52 µM)	8 (≈ 15 µM)
CCCn1c(CN2CCN(c3cc4c(cc3F)c(=O)c(C(=O)O)cn4C3CC3)CC2)nc2ccccc21	0.5 (≈ 0.993 µM)	1 (≈ 1.99 µM)	2 (≈ 3.97 µM)	32 (≈ 63.5 µM)	32 (≈ 63.5 µM)	4 (≈ 7.94 µM)	4 (≈ 7.94 µM)	1 (≈ 1.99 µM)	0.25 (≈ 0.496 µM)	1 (≈ 1.99 µM)	0.5 (≈ 0.993 µM)	32 (≈ 63.5 µM)	0.5 (≈ 0.993 µM)	4 (≈ 7.94 µM)	0.5 (≈ 0.993 µM)
CCCCCCCCCCCCCCCCCCn1c(CN2CCN(c3cc4c(cc3F)c(=O)c(C(=O)O)cn4C3CC3)CC2)nc2ccccc21	64 (≈ 89.6 µM)	128 (≈ 179 µM)	64 (≈ 89.6 µM)	64 (≈ 89.6 µM)	64 (≈ 89.6 µM)	64 (≈ 89.6 µM)	128 (≈ 179 µM)	32 (≈ 44.8 µM)	128 (≈ 179 µM)	128 (≈ 179 µM)	64 (≈ 89.6 µM)	64 (≈ 89.6 µM)	64 (≈ 89.6 µM)	16 (≈ 22.4 µM)	128 (≈ 179 µM)
O=C(O)c1cn(C2CC2)c2cc(N3CCN(Cc4nc5ccccc5[nH]4)CC3)c(F)cc2c1=O	0.5 (≈ 1.08 µM)	0.125 (≈ 0.271 µM)	0.125 (≈ 0.271 µM)	0.125 (≈ 0.271 µM)	0.25 (≈ 0.542 µM)	1 (≈ 2.17 µM)	0.5 (≈ 1.08 µM)	0.5 (≈ 1.08 µM)	0.0625 (≈ 0.135 µM)	0.125 (≈ 0.271 µM)	0.125 (≈ 0.271 µM)	0.125 (≈ 0.271 µM)	0.0625 (≈ 0.135 µM)	0.125 (≈ 0.271 µM)	0.125 (≈ 0.271 µM)
CCn1cc(C(=O)O)c(=O)c2cc(F)c(N3CCN(Cc4nc5ccccc5n4Cc4ccccc4F)CC3)cc21	512 (≈ 918 µM)	512 (≈ 918 µM)	256 (≈ 459 µM)	128 (≈ 230 µM)	512 (≈ 918 µM)	512 (≈ 918 µM)	512 (≈ 918 µM)	512 (≈ 918 µM)	512 (≈ 918 µM)	512 (≈ 918 µM)	512 (≈ 918 µM)	512 (≈ 918 µM)	512 (≈ 918 µM)	512 (≈ 918 µM)	512 (≈ 918 µM)
O=C(O)c1cn(C2CC2)c2cc(N3CCN(Cc4nc5ccccc5n4Cc4ccccc4F)CC3)c(F)cc2c1=O	16 (≈ 28.1 µM)	0.25 (≈ 0.439 µM)	0.25 (≈ 0.439 µM)	8 (≈ 14 µM)	16 (≈ 28.1 µM)	4 (≈ 7.02 µM)	2 (≈ 3.51 µM)	2 (≈ 3.51 µM)	32 (≈ 56.2 µM)	1 (≈ 1.76 µM)	16 (≈ 28.1 µM)	1 (≈ 1.76 µM)	32 (≈ 56.2 µM)	0.25 (≈ 0.439 µM)	8 (≈ 14 µM)
OC(Cn1cncn1)(Cn1cncn1)c1ccc(F)cc1F [FLUCONAZOLE]	256 (≈ 836 µM)	–	–	–	–	–	–	–	1 (≈ 3.27 µM)	–	4 (≈ 13.1 µM)	–	16 (≈ 52.2 µM)	–	8 (≈ 26.1 µM)
